System: adenylate cyclase
Assay: Fluorometric (non-radioactive) adenylate cyclase assay, rabbit ventricular membranes
Type: biochemical, rabbit (New Zealand white)
Conditions: NaF 10^-2 M; for Agonist-stimulated adenylate cyclase activity, fluorescent assay: Iso 10^-6 M, GppNHp 10^-4 M, n = 5; for stimulated activity, reduced assay volume: membrane suspension reduced from 25 μl to 5 μl, isoproterenol 10^-6 M
Experimental: Ventricular membrane preparations were prepared from five male New Zealand white rabbits (weight 2.4 kg; W.O.R.K., Philomith, Oreg.) sacrificed by cervical concussion and immediate incision of the heart as previously described. Briefly, hearts were placed in ice-cold SET buffer (0.25M sucrose, 0.1 mM EDTA, 5.0 mM Tris HCl, pH 7.4). Portions (1-2 g) from the ventricular apex were minced and then homogenized in ice-cold SET buffer (1/10, w/v). The homogenate was filtered through a Nitex filter (three layers) (Tetko, Los Angeles, Calif.) and then centrifuged for 20 min. at 1000×g. The pellet was resuspended and centrifuged three more times. The final pellet was resuspended in SET buffer (1.5 mg protein/ml) and stored at -70° C. until enzyme activity was measured.
A volume of 1.0 μl of either H2 O, NaF, guanylyl -5'-imidodiphosphate (GppNHp), isoproterenol, or isoproterenol+GppNHp was added to each of five reaction tubes and maintained at 0° C. Next, 25 μl of reaction mixture B (tris Acetate 100 mM, pH 7.4; KCl 20 mM; MgCl2 10.0 mM; phosphoenolpyruvate 20 mM; ATP 2.0 mM; GTP 0.02 mM; dithiothreitol 2.0 mM; bovine serum albumin 0.04%; theophylline 0.2 mM; pyruvate kinase 1.0 mg/ml) were added to each reaction tube. Finally, 25 μl of membrane suspension (40 to 45 μg protein) were added to each tube and the reaction was initiated by placing the tubes in a water bath at 37° C. After 30 minutes at 37° C., the reaction was stopped by the addition of 50 μl of 50 mM NaOH. The reaction mixture was heated for 5 minutes at 95° C.
1. A volume of 20-40 μl of reaction product from Part A was added to 100 μl of cleaning reaction mix (Tris-HCl 50 mM, pH 8.0; MgCl2 5 mM; CaCl2, 2 mM; 5'-nucleotidase 0.025 units/ml; apyrase 0.02 units/ml; adenosine deaminase 0.1 mg/ml). After 30 minutes at 37° C., the reaction was terminated by heating it at 95° C. for 5 minutes.
2. […] After 60 minutes at 37° C., 600 μl of 2-amino-2-methyl-1-propanol (AMP2) 50 mM, pH 9.9 was added to the reaction mix and the final concentration of NADPH was measured fluorometrically.
Although the basal activity is nearly 3 times higher in the nonradioactive method, the "fold" stimulation is similar for both receptor-mediated agonists (isoproterenol±GppNHp) as well by NaF, which directly stimulates adenylate cyclase.
The non-radioactive assay of Example 2 is at least 5 times more sensitive than the modified Salomon radioactive assay of Example 1. In Table 3, 5 μl of membrane preparation were used to measure adenylate cyclase activity in the non-radioactivity assay compared to 25 μl with the radioactive preparations. In a separate experiment, the volume of membrane suspension was reduced from 25 μl to 5 μl. By proportionally reducing the assay volume size, no difference in basal (58.4±3.9), isoproterenol (10^-6 M) (128±7.6) or NaF (10^-2 M) (331.9±42.8) stimulated activity was observed when results were compared to larger assay volumes present. EXAMPLE 5.

Row | Compound | Agonist-stimulated adenylate cyclase activity, fluorescent assay | stimulated activity, reduced assay volume
1 | [F-].[Na+] [NaF, Sodium Fluoride] | 346.7 ± 15.9 pmoles of cAMP/mg/min | 331.9±42.8
2 | CC(C)NCC(O)c1ccc(O)c(O)c1 (stereo not shown) [isoproterenol] | 110.0 ± 3.3 pmoles of cAMP/mg/min | 128±7.6
